In publication PMC6376154 (International Journal for Parasitology: Drugs and Drug …, 2019):
pEC50: −log10 of the molar value. Where two headings read alike, the source gives them in different places.

How the values were obtained:
[1] = test system: P. falciparum 3D7 asexual blood stage; settings: cited from earlier work
[2] = test system: bovine PBMC stimulated with ConA (Con A blasts)
Method: (§1) All the MMV compounds were initially tested for inhibitory activity on the growth of F100TpM, a bovine lymphocyte cell line infected by T. parva. […] All compounds were tested in triplicate.
(§2) The radiolabeled precursor ^3H-thymidine is incorporated into DNA strands during cell replication and radioisotope incorporation is often used as a measure of cell proliferation.
(§3) IC50 values were calculated using the Graph Pad Prism 7 software (GraphPad Software, Inc., La Jolla, CA), and average values of radio-isotope incorporation in wells with and without compound on the growth of F100TpM cells. The CC50 values were calculated using ^3H-thymidine incorporation values determined on the growth of PBMC stimulated with ConA. The therapeutic index of a compound was calculated by dividing the CC50 value with the IC50 value.

[3] = test system: F100TpM, a bovine lymphocyte cell line infected by T. parva; assay: 3H-thymidine incorporation growth assay on F100TpM cells (screen at 1 μM and IC50 titration);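 on all read-outs here: growth inhibition compared against wells lacking compound, run in triplicate, and CC50 derived from 3H-thymidine uptake by PBMC stimulated with ConA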; settings: for TI (CC50/IC50), therapeutic index: CC50 on Con A blasts divided by IC50 on F100TpM; for IC50: read-out: IC50 (μM) F100TpM, T. parva infected lymphocyte cell line, 48 h compound, 3H-thymidine incorporation
Method: as §1, §2, §3

[4] = test system: bovine PBMC stimulated with ConA (Con A blasts); assay: 3H-thymidine incorporation toxicity assay on ConA-stimulated uninfected bovine PBMC (CC50); settings: read-out: CC50 (μM) Con A blasts; uninfected bovine PBMC stimulated with ConA, 48 h compound, 3H-thymidine incorporation
Method: as §1, §2, §3

[5] = MMV Malaria Box data sheet, ref MMV data sheets
[6] = MMV Malaria Box data sheet, ref MMV data sheets, read-out: EC50_nM
[7] = source GNF, ref ChEMBL_NTD, read-out: CHEMBL EC50
[8] = source GSK, ref ChEMBL_NTD, read-out: CHEMBL EC50
[9] = ChEMBL-NTD value per source (GNF, GSK, StJude), several values in a cell follow the order of the sources, read-out: CHEMBL EC50

SMILES: O=[N+]([O-])c1ccc(C=NNc2nc3ccccc3[nH]2)cc1 [MMV666607]
- percent_inh @ 5 uM [1, 5]: 99%
- pEC50 [1, 6]: 6.85
- pEC50 [1, 7]: 6.09
- pEC50 [1, 8]: 6.55

SMILES: COc1ccccc1C(=O)ON=C(N)Cc1cccc2ccccc12 [MMV666686]
- pEC50 [1, 9]: 6.45

SMILES: COc1cc(C(=O)ON=C(N)Cc2cccc3ccccc23)cc(OC)c1OC [MMV666687]
- pEC50 [1, 9]: 6.55

SMILES: Cc1cc(C=C2SC(=Nc3ccccc3)N(C3CCCC3)C2=O)c(C)n1-c1ccc(Cl)cc1 [MMV666688]
- percent_inh @ 5 uM [1, 5]: 97%
- pEC50 [1, 6]: 6.58
- pEC50 [1, 8]: 6.06

SMILES: COc1ccc(Nc2nc(NN=Cc3ccc(O)cc3)nc(Nc3ccc([N+](=O)[O-])cc3)n2)cc1 [MMV666689]
- pEC50 [1, 9]: 5.95

SMILES: COc1ccc(C=C2SC(=N)N(c3ccccc3OC)C2=O)cc1 [MMV666691]
- percent_inh @ 5 uM [1, 5]: 97%
- pEC50 [1, 6]: 6.77
- pEC50 [1, 8]: 6.52

SMILES: CCCCCCc1cc2cc(-c3csc(C=Cc4ccccc4)n3)c(=O)oc2cc1O [MMV666692]
- pEC50 [1, 9]: 6.01

SMILES: COc1cccc(C=Cc2nc(=O)c3ccccc3o2)c1OC [MMV666693]
- percent_inh @ 5 uM [1, 5]: 96%
- pEC50 [1, 6]: 7.62
- pEC50 [1, 8]: 7.19

SMILES: CN(C)c1ccc(N2C(N)=NC(N)=NC2(C)C)cc1 [MMV667487]
- percent_inh @ 2 uM ([1]; 2 uM, MMV Malaria Box sheet, ref MMV data sheets): 95%
- pEC50 [1, 7]: 7.73
- pEC50 ([1]; source StJude, ref ChEMBL_NTD, read-out: CHEMBL EC50): 7.14

SMILES: COc1ccc(CCn2c(=N)c(C(=O)NCc3cccnc3)cc3c(=O)n4cccc(C)c4nc32)cc1 [MMV667488]
- pEC50 [1, 9]: 5.85

SMILES: CO[C@@H](C(=O)N1Cc2[nH]nc(NC(=O)c3ccc(N4CCN(C)CC4)cc3)c2C1)c1ccccc1 [MMV676600]
- CC50 [2]: < 1 nM
- TI (CC50/IC50), therapeutic index [3]: <0.001
- IC50 [3]: 0.55 µM

SMILES: CNC(=O)c1nn(C)c2c1C(C)(C)Cc1cnc(Nc3ccc(N4CCN(C)CC4)cc3)nc1-2 [MMV676602]
- CC50 [4]: 0.3 µM
- TI (CC50/IC50), therapeutic index [3]: 0.86
- IC50 [3]: 0.35 µM

SMILES: Cc1nn(C)c(C)c1NS(=O)(=O)c1c(Cl)cc(-c2ccnc(N3CCNCC3)c2)cc1Cl [MMV688180]
- CC50 [4]: < 0.001 µM
- TI (CC50/IC50), therapeutic index [3]: <0.001
- IC50 [3]: 0.97 µM

SMILES: N=C(N)Nc1ccc(-c2ccc(-c3ccc(N=C(N)N)c(Cl)c3)o2)cc1Cl [MMV688271]
- CC50 [2]: 560 nM
- TI (CC50/IC50), therapeutic index [3]: 0.95
- IC50 [3]: 0.59 µM

SMILES: O=C(Nc1ccc(F)c(-c2nc3ncc(-c4ccccc4)cc3[nH]2)c1)N1CCCC1 [MMV688372]
- IC50 [3]: 0.61 µM

SMILES: CC(=O)OCC1OC([S-])C(OC(C)=O)C(OC(C)=O)C1OC(C)=O.CCP(CC)CC.[Au+] (centres unmarked) [MMV688978, Auranofin, reference compound]
- CC50 [4]: 0.4 µM
- TI (CC50/IC50), therapeutic index [3]: 0.74
- IC50 [3]: 0.54 µM
- IC50 ([3]; listed as auranofin): < 1 µM
